Assay results taken from US20060240424A1, “Regulation of human p2y15 g protein-coupled receptor” (priority 2002, published 2006).
“And” between values parts separate entries of the source, which are not always exact repeats. Identical values can stand only once.

What was measured:
[1] = test system: nontransfected HEK293 cells; assay: Ca2+ flux assay in nontransfected HEK293 cells (control); format: cell-based, human; conditions: for calcium mobilization in response to nucleotide: both stable transfectants and nontransfected cells (endogenous P2Y1 and P2Y2)
[2] = biological target: T1, P2Y15 (Homo sapiens, UniProt Q96P68); assay: Calcium mobilization assay in presence of adenosine receptor antagonists; format: cell-based; parameters: expressed in transfected cells; conditions: for block of calcium mobilization induced by AMP and adenosine: FIG. 4, dose-dependent
Protocol: (§1) Ligand screening was performed in a Ca^2+ flux assay as follows. Stably transfected P2Y15 GPCR-expressing cells were seeded into 96-well plates and incubated overnight at 37° C. in a tissue culture incubator. The culture medium was aspirated and replaced with […] of loading buffer containing 0.1% BSA, 20 mM HEPES, 1 mM probenecid, 0.01% pluronic F127, and 1 µM Fluo-3-AM (Molecular Probes, Eugene, Oreg.) in HBSS, and incubated for 1 hour at room temperature. The cells were then washed gently 3 times with wash buffer containing 0.1% BSA, 20 mM HEPES, 1 mM probenecid in HBSS. The washed cells were placed in an FDSS6000 functional drug screening system (Hamamatsu Photonics, Hamamatsu, Japan) and changes in cellular fluorescence were measured after adding serial dilutions of potential ligands. A panel of about 130 potential ligands was assembled by selecting known ligands of the GPCRs most closely related to P2Y15 GPCR as well as several naturally occurring chemical relatives of the ligands. The library included various bioactive lipids, eicosanoids, peptides, cannabinoids, chemokines, nucleosides, nucleotides and chemically related substances. The ligands were genereally purchased from either Sigma or R&D Systems.

[3] = biological target: T2, P2Y15 GPCR (Homo sapiens, UniProt Q96P68); assay: Ca2+ flux assay (ligand screening) in stably transfected P2Y15 GPCR-expressing HEK293 cells; format: cell-based; conditions: FIG. 2A, read-out: calcium response EC50
T2 construct: expressed in transfected cells
Protocol: as §1

[4] = biological target: T1, P2Y15; assay: Competitive binding assay on P2Y15 transfectants; parameters: expressed in transfected cells; conditions: 10 μM ^3H-adenosine; FIG. 3D; read-out: Ki for blocking binding of ^3H-adenosine to transfectants
Protocol: Competitive binding experiments were carried out as follows: 10^5 cells per well in 96-well plates were washed twice for 1 h with DMEM medium. […] After incubating at 4° C. for 16 h, the plates were centrifuged for 10 min at 1500 rpm and then scintillation measured on a TopCount automated scintillation counter. Ki values were determined by non-linear regression using the program Prism (Graph Pad).

[5] = test system: nontransfected HEK293 cells; assay: Cyclic AMP production assay in nontransfected HEK293 cells; format: cell-based, human; conditions: 10 μM forskolin
Protocol: (§2) The cells were then lysed and the cAMP produced was measured by a cAMP-specific ELISA. Concentrations of cAMP produced were calculated by comparing against cAMP standards measured simultaneously.

[6] = biological target: T1, P2Y15; assay: Receptor binding assay (saturation binding) on P2Y15 stable transfectants; conditions: whole cells, 4° C., 16 h; radiolabelled ligand
Protocol: 10^5 cells per well in 96-well plates were washed twice for 1 h with DMEM medium. […] After incubating at 4° C. for 16 h, the plates were centrifuged for 10 min at 1500 rpm and then scintillation measured on a TopCount automated scintillation counter. Binding of [^32P]-AMP was carried out under the same conditions except that instead of using SPA beads, at the end of the incubation, cells were washed three times by vacuum filtration and 100 μl scintillation fluid was added to the wells.

[7] = test system: nontransfected HEK293 cells; assay: Competitive binding assay on nontransfected HEK293 cells; parameters: species or system human; conditions: for antagonism of ^3H-AMP binding to nontransfected HEK293 cells: 10 μM ^3H-AMP
Protocol: Competitive binding experiments were carried out as follows: 10^5 cells per well in 96-well plates were washed twice for 1 h with DMEM medium. Then wheatgerm agglutinin SPA beads (Amersham) at 1 mg/well were added, followed 1 h later by 10 μM [^3H]-Adenosine or 10 μM [^3H]-AMP (Amersham), and increasing concentrations of unlabeled ligand in a constant volume of HBS: 10 mM Hepes, 130 mM NaCl, 5 mM KCl, 1 mM MgCl2, 1 mM CaCl2 and 1 g/l glucose (6 μl/well)). After incubating at 4° C. for 16 h, the plates were centrifuged for 10 min at 1500 rpm and then scintillation measured on a TopCount automated scintillation counter. Ki values were determined by non-linear regression using the program Prism (Graph Pad).

[8] = biological target: T1, P2Y15; assay: Cyclic AMP production assay in P2Y15-HEK293 stable transfectants; format: cell-based; parameters: expressed in transfected cells; conditions: for effect of pertussis toxin pretreatment on cyclic AMP production in response to ligand: pretreatment two hours with 1 μM pertussis toxin; for cyclic AMP response to ligand alone: without forskolin
Protocol: as §2

[9] = 10 M AMP (FIG. 4A legend), read-out: Ki for blocking calcium mobilization induced by AMP
[10] = Ki for blocking calcium mobilization induced by adenosine, 10 M adenosine (FIG. 4B legend)

Nc1ncnc2c1ncn2[C@@H]1O[C@H](COP(=O)(O)OP(=O)(O)OP(=O)(O)O)[C@@H](O)[C@H]1O [ATP]
calcium mobilization in response to nucleotide [1]: mobilized calcium

CC(C)Cn1c(=O)n(C)c(=O)c2[nH]cnc21 [IBMX, 3-isobutyl-1 methylxanthine]
block of calcium mobilization induced by AMP and adenosine [2]: able to block

Nc1ncnc2c1ncn2[C@@H]1O[C@H](COP(=O)(O)O)[C@@H](O)[C@H]1O [AMP, Adenosine 5′-monophosphate]
EC50 [3]: 920 nM | Ki [4]: 24600 nM | cyclic AMP generation in nontransfected HEK293 cells [5]: did not respond strongly | Kd [6]: 18600 nM and 18800 nM | antagonism of ^3H-AMP binding to nontransfected HEK293 cells [7]: neither AMP nor adenosine can antagonize | blocking ^3H-adenosine binding to nontransfected HEK293 cells ([7]; 10 μM ^3H-adenosine, FIG. 3D): little effect | EC50 ([8]; in the presence of 10 μM forskolin, 30 min, FIG. 2B, read-out: generation of cyclic AMP EC50): 214 nM | effect of pertussis toxin pretreatment on cyclic AMP production in response to ligand [8]: not affected | cyclic AMP response to ligand alone [8]: only minor responses barely above the detection limit

Nc1ncnc2c1ncn2[C@@H]1O[C@H](CO)[C@@H](O)[C@H]1O [adenosine]
calcium mobilization response to adenosine in nontransfected cells ([1]; nontransfected HEK293, detected only at very high adenosine concentrations): very weak response | cyclic AMP generation in nontransfected HEK293 cells [5]: generated cyclic AMP | antagonism of ^3H-AMP binding to nontransfected HEK293 cells [7]: neither AMP nor adenosine can antagonize | effect of pertussis toxin pretreatment on cyclic AMP production in response to ligand [8]: not affected | cyclic AMP response to ligand alone [8]: only minor responses barely above the detection limit

Cn1c(=O)c2c(ncn2C)n(C)c1=O [caffeine]
Ki [2, 9]: 2700 nM | Ki [2, 10]: 26200 nM

Cn1c(=O)c2[nH]c(-c3ccccc3)nc2n(C)c1=O [8-phenyltheophylline, 8-Phenyltheophylline]
Ki [2, 9]: 250 nM | Ki [2, 10]: 260 nM

O=c1ccn([C@@H]2O[C@H](COP(=O)(O)OP(=O)(O)OP(=O)(O)O)[C@@H](O)[C@H]2O)c(=O)[nH]1 [UTP]
calcium mobilization in response to nucleotide [1]: mobilized calcium

Cn1c(=O)c2[nH]cnc2n(C)c1=O [theophylline]
block of calcium mobilization induced by AMP and adenosine [2]: able to block

Nc1ncnc2c1ncn2[C@@H]1O[C@H](COP(=O)(O)CP(=O)(O)O)[C@@H](O)[C@H]1O [AMP-CP, Adenosine 5′-(α,β-methylene)diphosphate]
block of calcium mobilization induced by AMP and adenosine [2]: effective in blocking
